Assay results from ChEMBL document CHEMBL1201862, “PubChem BioAssay data set” (2004).
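In this assay, cells in 96-well plates receive the compound at five concentrations for 48 hours. Endpoints are linearly interpolated between the surrounding concentrations. GI50 = concentration required for 50% inhibition of growth.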 Activity calls are given as the source filed them. Cut-off read from the data, not from the text of the source: active = GI50 up to about 1.1 µM and inactive = higher.

Tests used:
Experiment in all cases: NCI-60 cell line screen, 48 h
[1] = test system: UO-31
[2] = test system: RXF 393
[3] = test system: HOP-92
[4] = test system: OVCAR-5
[5] = test system: A498
[6] = test system: Malme-3M
[7] = test system: SNB-19
[8] = test system: COLO 205
[9] = test system: OVCAR-4
[10] = test system: SN12C
[11] = test system: SW-620
[12] = test system: CAKI-1
[13] = test system: DMS-273
[14] = test system: HT-29
[15] = test system: UACC-257
[16] = test system: EKVX
[17] = test system: HL-60
[18] = test system: DLD-1
[19] = test system: MDA-MB-435
[20] = test system: Hs-578T

| Structure (SMILES) | GI50 [1] | GI50 [2] | GI50 [3] | GI50 [4] | GI50 [5] | GI50 [6] | GI50 [7] | GI50 [8] | GI50 [9] | GI50 [10] | GI50 [11] | GI50 [12] | GI50 [13] | GI50 [14] | GI50 [15] | GI50 [16] | GI50 [17] | GI50 [18] | GI50 [19] | GI50 [20] |
| --- | --- | --- | --- | --- | --- | --- | --- | --- | --- | --- | --- | --- | --- | --- | --- | --- | --- | --- | --- | --- |
| O=C1O[C@H](C(Cl)(Cl)Cl)N2CCCC12 (some centres undefined) | > 100 µM (inactive) | > 100 µM (inactive) | > 100 µM (inactive) | > 100 µM (inactive) | > 100 µM (inactive) | > 100 µM (inactive) | > 100 µM (inactive) | > 100 µM (inactive) | > 100 µM (inactive) | > 100 µM (inactive) | > 100 µM (inactive) | > 100 µM (inactive) | > 100 µM (inactive) | > 100 µM (inactive) | > 100 µM (inactive) | > 100 µM (inactive) | > 100 µM (inactive) | – | – | – |
| C(/C=C/N1CCCC1)=C\c1nc(N2CCCC2)c2ccccc2n1 | 15.7 µM (inactive) | – | – | 15.6 µM (inactive) | > 100 µM (inactive) | 18.3 µM (inactive) | 18.5 µM (inactive) | 14.4 µM (inactive) | 13.9 µM (inactive) | 13.5 µM (inactive) | 14.3 µM (inactive) | 19.7 µM (inactive) | 18.4 µM (inactive) | 20.7 µM (inactive) | 33.2 µM (inactive) | 20.1 µM (inactive) | 23.4 µM (inactive) | 18.7 µM (inactive) | – | – |
| CCOc1ccc(/N=N/c2ccc3oc(=O)c(C(=O)Nc4ccc(OC)cc4)cc3c2)cc1 | 5.57 µM (inactive) | – | – | 32 µM (inactive) | 4.22 µM (inactive) | 30.1 µM (inactive) | 14 µM (inactive) | 47.9 µM (inactive) | 7.1 µM (inactive) | 18 µM (inactive) | 18.5 µM (inactive) | 11 µM (inactive) | 25.8 µM (inactive) | 42.5 µM (inactive) | 27.9 µM (inactive) | 26.6 µM (inactive) | 2.88 µM (inactive) | 8.32 µM (inactive) | – | – |
| CC(=O)Oc1c(Br)ccc2cc(C(Br)Br)c(C(=O)c3ccccc3)nc12 | 19.2 µM (inactive) | 17.9 µM (inactive) | – | 17.3 µM (inactive) | – | 24.9 µM (inactive) | 19.9 µM (inactive) | 24.4 µM (inactive) | 5.01 µM (inactive) | 20 µM (inactive) | 22.4 µM (inactive) | 3.78 µM (inactive) | 20.6 µM (inactive) | 19.2 µM (inactive) | 1.88 µM (inactive) | 22.5 µM (inactive) | – | 24 µM (inactive) | – | – |
| C1OCC2S[C@@H]3COCO[C@@H]3C2O1 (some centres undefined) | > 100 µM (inactive) | > 100 µM (inactive) | – | > 100 µM (inactive) | > 100 µM (inactive) | > 100 µM (inactive) | > 100 µM (inactive) | > 100 µM (inactive) | > 100 µM (inactive) | > 100 µM (inactive) | – | > 100 µM (inactive) | > 100 µM (inactive) | > 100 µM (inactive) | > 100 µM (inactive) | > 100 µM (inactive) | > 100 µM (inactive) | > 100 µM (inactive) | – | – |
| CC(=O)Nc1ccc(C(=O)NN2C(=O)C(Cl)C2c2ccc(Cl)cc2)cc1 (centres undefined) | > 100 µM (inactive) | – | 26.1 µM (inactive) | > 74.3 µM (inactive) | – | > 42.9 µM (inactive) | 24.2 µM (inactive) | > 100 µM (inactive) | > 100 µM (inactive) | 39.6 µM (inactive) | > 100 µM (inactive) | – | – | > 100 µM (inactive) | > 100 µM (inactive) | > 100 µM (inactive) | > 100 µM (inactive) | > 100 µM (inactive) | > 100 µM (inactive) | 8.83 µM (inactive) |
| C=C(C)C1CC[C@]2(C(=O)O)CCC3(C)[C@H](CCC4[C@@]5(C)CC[C@H](OC6OC(CO)C(O)C6OC6OC(C)C(O)C(O)C6O)[C@@](C)(CO)C5CC[C@]43C)C12 (some centres undefined) | 20.1 µM (inactive) | > 100 µM (inactive) | – | > 100 µM (inactive) | – | – | > 100 µM (inactive) | > 100 µM (inactive) | > 100 µM (inactive) | > 100 µM (inactive) | > 100 µM (inactive) | – | > 100 µM (inactive) | > 100 µM (inactive) | – | > 100 µM (inactive) | > 100 µM (inactive) | 33.9 µM (inactive) | – | – |
| OC1C2[C@@H](O)CCCN2C[C@@H](O)[C@H]1O (some centres undefined) | > 100 µM (inactive) | > 100 µM (inactive) | > 100 µM (inactive) | > 100 µM (inactive) | > 100 µM (inactive) | > 100 µM (inactive) | > 100 µM (inactive) | > 100 µM (inactive) | > 100 µM (inactive) | > 100 µM (inactive) | > 100 µM (inactive) | > 100 µM (inactive) | – | > 100 µM (inactive) | > 100 µM (inactive) | > 100 µM (inactive) | > 100 µM (inactive) | – | > 100 µM (inactive) | > 100 µM (inactive) |
| Cc1nc2c(o1)C(=O)c1ccccc1/C2=N/c1ccc(N2CCOCC2)cc1 | 3.43 µM (inactive) | 0.421 µM (active) | 10.7 µM (inactive) | 18.2 µM (inactive) | 18.7 µM (inactive) | 1.74 µM (inactive) | 8.47 µM (inactive) | 23.7 µM (inactive) | 2.99 µM (inactive) | 3.18 µM (inactive) | 3.89 µM (inactive) | 13.2 µM (inactive) | – | 24.8 µM (inactive) | 1.94 µM (inactive) | 7.73 µM (inactive) | 1.83 µM (inactive) | – | 1.94 µM (inactive) | 3.22 µM (inactive) |
| CC(C)=C1CCC(CN(C)C)C1=O (centres undefined) | > 100 µM (inactive) | 18.6 µM (inactive) | 20.9 µM (inactive) | > 100 µM (inactive) | 19.6 µM (inactive) | 16.3 µM (inactive) | > 100 µM (inactive) | 24.1 µM (inactive) | 15 µM (inactive) | 18.4 µM (inactive) | 6.12 µM (inactive) | – | – | 20.6 µM (inactive) | 17.5 µM (inactive) | 17.7 µM (inactive) | 3.61 µM (inactive) | 6.85 µM (inactive) | – | – |
| C[C@@]1(c2ccccc2)O[C@@H]2C[C@H]3[C@@H]4CCC5=CC(=O)C=C[C@]5(C)[C@@]4(F)[C@@H](O)C[C@]3(C)[C@]2(C(=O)CO)O1 [AMCINAFIDE] | 18.1 µM (inactive) | 20.1 µM (inactive) | 22.3 µM (inactive) | 15.6 µM (inactive) | 18 µM (inactive) | 13.8 µM (inactive) | 24.7 µM (inactive) | 14.4 µM (inactive) | 15 µM (inactive) | 12.9 µM (inactive) | 21.9 µM (inactive) | 23.3 µM (inactive) | – | 17 µM (inactive) | 17.6 µM (inactive) | 12.4 µM (inactive) | 18.8 µM (inactive) | – | 18.7 µM (inactive) | 18.7 µM (inactive) |
| N=C(N)NC(=N)Nc1ccc(S(N)(=O)=O)cc1 | > 100 µM (inactive) | > 100 µM (inactive) | > 100 µM (inactive) | > 100 µM (inactive) | > 100 µM (inactive) | > 100 µM (inactive) | > 100 µM (inactive) | > 100 µM (inactive) | > 100 µM (inactive) | > 100 µM (inactive) | > 100 µM (inactive) | > 100 µM (inactive) | – | > 100 µM (inactive) | > 100 µM (inactive) | > 100 µM (inactive) | > 100 µM (inactive) | – | > 100 µM (inactive) | > 100 µM (inactive) |
| CCOC(=O)c1ccc(-c2cccs2)[nH]1 | 50 µM (inactive) | > 66.4 µM (inactive) | 12.1 µM (inactive) | > 57 µM (inactive) | > 55.5 µM (inactive) | 63.4 µM (inactive) | 98.2 µM (inactive) | 60.7 µM (inactive) | 31.6 µM (inactive) | > 100 µM (inactive) | > 84.7 µM (inactive) | > 92.5 µM (inactive) | – | 54 µM (inactive) | 91.6 µM (inactive) | 38.8 µM (inactive) | 38.8 µM (inactive) | – | 44.3 µM (inactive) | 76.9 µM (inactive) |
| CC(=O)Nc1ccc(C(O)/C(=N/N)c2nc3ccc(Cl)cc3nc2O)cc1 (centres undefined) | > 100 µM (inactive) | > 100 µM (inactive) | > 100 µM (inactive) | > 100 µM (inactive) | > 100 µM (inactive) | > 100 µM (inactive) | > 100 µM (inactive) | > 100 µM (inactive) | > 100 µM (inactive) | > 100 µM (inactive) | > 100 µM (inactive) | > 100 µM (inactive) | – | > 100 µM (inactive) | > 100 µM (inactive) | > 100 µM (inactive) | > 100 µM (inactive) | – | > 100 µM (inactive) | > 100 µM (inactive) |
| C=C1C(=O)O[C@@H]2C[C@@H]3[C@]4(CC[C@]5(C)[C@@H]([C@H](C)CC/C=C(\C)C=O)CC[C@@]35C)C[C@]4(CCC(=O)OC)[C@H]12 | 2 µM (inactive) | 1.89 µM (inactive) | 1.94 µM (inactive) | 2.16 µM (inactive) | 2.79 µM (inactive) | 1.59 µM (inactive) | 1.97 µM (inactive) | 2.39 µM (inactive) | 1.7 µM (inactive) | 1.9 µM (inactive) | 1.72 µM (inactive) | 3.26 µM (inactive) | – | 4.39 µM (inactive) | 0.454 µM (active) | 2.99 µM (inactive) | 0.367 µM (active) | – | 1.51 µM (inactive) | 3.01 µM (inactive) |
| COc1cc(OC2OC(COC(=O)c3cc(O)c(O)c(O)c3)C(O)C(O)C2O)ccc1O (centres undefined) | 33.2 µM (inactive) | > 100 µM (inactive) | 32.7 µM (inactive) | > 100 µM (inactive) | > 100 µM (inactive) | > 100 µM (inactive) | > 100 µM (inactive) | > 100 µM (inactive) | 55.3 µM (inactive) | 77.8 µM (inactive) | 40.3 µM (inactive) | 69.2 µM (inactive) | – | 70.5 µM (inactive) | > 100 µM (inactive) | > 100 µM (inactive) | 93.1 µM (inactive) | – | 24.4 µM (inactive) | > 100 µM (inactive) |
